Four compounds from ChEMBL document CHEMBL1125979, “Phosphinic acid inhibitors of 3-hydroxy-3-methylglutaryl-coenzyme a reductase” (Bioorg Med Chem Lett, 1991) can be followed below.

Assay [1] deals with HepG2. The experiment in a line: The compound was tested for inhibition of cholesterol biosynthesis in human hepatoma G2 cell line. Type of assay: functional, cell-based.
The target in assay [2] is T1, 3-hydroxy-3-methylglutaryl-coenzyme A reductase (Homo sapiens, UniProt P04035).
T1 sequence (P04035 whole entry): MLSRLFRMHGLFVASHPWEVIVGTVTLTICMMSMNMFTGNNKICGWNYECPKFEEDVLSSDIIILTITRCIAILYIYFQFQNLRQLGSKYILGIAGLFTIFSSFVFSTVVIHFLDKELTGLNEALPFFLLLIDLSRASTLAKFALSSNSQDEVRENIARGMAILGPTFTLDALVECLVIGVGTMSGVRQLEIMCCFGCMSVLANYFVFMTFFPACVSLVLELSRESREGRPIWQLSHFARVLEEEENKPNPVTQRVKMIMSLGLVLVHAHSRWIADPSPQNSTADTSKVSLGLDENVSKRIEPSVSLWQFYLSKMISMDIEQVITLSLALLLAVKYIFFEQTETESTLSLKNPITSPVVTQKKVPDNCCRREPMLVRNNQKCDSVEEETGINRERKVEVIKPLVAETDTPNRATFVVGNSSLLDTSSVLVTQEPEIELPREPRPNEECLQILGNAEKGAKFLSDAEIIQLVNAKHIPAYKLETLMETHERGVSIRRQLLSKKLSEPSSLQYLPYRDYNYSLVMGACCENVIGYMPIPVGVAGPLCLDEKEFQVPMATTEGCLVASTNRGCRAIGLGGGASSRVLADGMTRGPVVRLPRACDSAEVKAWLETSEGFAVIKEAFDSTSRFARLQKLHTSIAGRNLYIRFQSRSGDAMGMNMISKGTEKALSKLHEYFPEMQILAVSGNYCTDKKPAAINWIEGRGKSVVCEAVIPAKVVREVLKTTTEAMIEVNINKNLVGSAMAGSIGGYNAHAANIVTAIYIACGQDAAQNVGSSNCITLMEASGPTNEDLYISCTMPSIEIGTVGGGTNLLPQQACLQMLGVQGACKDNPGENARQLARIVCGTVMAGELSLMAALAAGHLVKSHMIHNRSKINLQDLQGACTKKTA
The experiment in a line: The inhibitory activity against purified recombinant human HMG-CoA reductase was evaluated.

Assay [3] relates to HepG2. The experiment in a line: The compound was tested for inhibition of cholesterol biosynthesis in human hepatoma G2 cell line; showed relatively low potency. Type of assay: functional, cell-based.

In general, IC50 refers to the concentration that inhibits the measured activity by half. `CC(C)(C)C(=O)OCOC(=O)CC(O)CP(=O)(CCc1c(Cl)cc(Cl)cc1OCc1ccccc1)OCOC(=O)C(C)(C)C` (stereo not given) showed an IC50 in the assay with HepG2 [1] of 0.1 µM.

A word on the Ki: it is the equilibrium dissociation constant of an inhibitor or competing ligand from its target. For the compound `O=C(O)C[C@H](O)CP(=O)(O)CCc1c(Cl)cc(Cl)cc1OCc1ccccc1`, the Ki in assay [2] stood at 0.016 µM. Further, in the assay on HepG2 [3], the IC50 is above 1 µM.

Take `COC(=O)CC(O)CP(=O)(O)CCc1c(Cl)cc(Cl)cc1OCc1ccccc1` (stereo not given): half-maximal inhibition in the assay with HepG2 [1] (IC50) required 0.1 µM.

As for `O=C(O)C[C@H](O)C[C@H](O)CCc1c(Cl)cc(Cl)cc1OCc1ccccc1`, the Ki in assay [2] was 0.003 µM.
